Results published in article PMC10023787, “Trio-pharmacophore DNA-encoded chemical library for simultaneous selection of fragments and linkers” (Nature Communications, 2023).

Assays:
Assay type in all cases: biochemical
bovine trypsin = target: T1, bovine trypsin (Bos taurus, UniProt P00760); experiment: Trypsin inhibition assay (proteolytic activity on BApNA); conditions: for remaining activity at 1000 µM: Concentration 1000000 nM; for IC50: mean ± SE, three independent measurements, n.d: not detected; for improvement (of inhibitory effect): compared with 4-aminomethyl benzamidine
T1 construct: purchased Sigma-Aldrich T8003
T1 sequence (P00760 24-246): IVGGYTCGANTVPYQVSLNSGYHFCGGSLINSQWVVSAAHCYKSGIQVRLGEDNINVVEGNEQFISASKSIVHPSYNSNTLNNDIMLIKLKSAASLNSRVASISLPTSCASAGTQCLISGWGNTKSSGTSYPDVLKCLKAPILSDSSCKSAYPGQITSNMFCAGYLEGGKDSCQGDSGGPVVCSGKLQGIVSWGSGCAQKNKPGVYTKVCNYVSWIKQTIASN
Method: The inhibition by the benzamidine derivatives against trypsin was measured using an assay probing the enzyme proteolytic activity on the substrate Nα-Benzoyl-DL-arginine-4-nitroanilide hydrochloride (BApNA). […] 5 µl of BApNA solution (10 mM, dissolved in DMSO) were added immediately prior to the measurement. The final total volume was 100 µl per well. The measurements were performed in a Low Binding 384-well plate. The absorption was measured at 410 nm in intervals of 10 sec for 15 min at 37 °C using a Beckman Coulter’s Paradigm Detection Platform (Brea, USA). The measurements were performed in triplicate. The activity of trypsin was calculated by the hydrolysis rate of BApNA after subtraction of the background-hydrolysis rate. The curves were plotted as a function of the concentration of the inhibitor against the relative enzyme activity. Vmax was derived from the detected absorption signal for each concentration and logistic fitting was performed to obtain IC50 values using Origin 2019b (OriginLab).

MMP-2 = target: T2, MMP-2 (Homo sapiens, UniProt P08253); experiment: MMP-2 inhibition assay (fluorogenic peptide substrate); conditions: Figure 5d; fragment combination joined by linker; n.d: not detected; read-out: MMP2 IC50
T2 construct: purchased Sino Biological 10082-HNAH
T2 sequence (P08253 110-660): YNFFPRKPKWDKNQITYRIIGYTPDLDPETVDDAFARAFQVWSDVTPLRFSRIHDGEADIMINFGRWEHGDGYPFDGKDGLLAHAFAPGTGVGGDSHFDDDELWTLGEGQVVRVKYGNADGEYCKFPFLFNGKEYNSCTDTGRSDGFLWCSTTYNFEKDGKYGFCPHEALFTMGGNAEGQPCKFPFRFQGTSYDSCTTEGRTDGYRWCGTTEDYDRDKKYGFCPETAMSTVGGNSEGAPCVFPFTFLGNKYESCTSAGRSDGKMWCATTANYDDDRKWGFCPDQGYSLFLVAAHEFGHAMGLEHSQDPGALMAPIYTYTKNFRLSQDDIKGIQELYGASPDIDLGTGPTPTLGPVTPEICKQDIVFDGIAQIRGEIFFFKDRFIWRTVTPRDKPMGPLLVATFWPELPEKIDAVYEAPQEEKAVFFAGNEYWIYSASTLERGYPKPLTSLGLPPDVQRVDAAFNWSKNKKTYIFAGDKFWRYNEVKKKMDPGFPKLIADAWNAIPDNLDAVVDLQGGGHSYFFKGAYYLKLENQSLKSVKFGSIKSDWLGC
How it was run: (§1)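 Hydrolysis of DNP-Pro-Leu-Gly-Met-Trp-Ser-Arg (25 μM final) was tracked kinetically at em 360 nm over 30 min. Enzymes, APMA-activated and at 10 nM (MMP-9) or 6.5 nM (MMP-2) final, sat 30 min at RT with inhibitor in pH 7.5 Tris buffer with CaCl2 and Brij 35 first. Logistic fitting of Vmax against concentration gave IC50, in triplicate.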

MMP-9 = target: T3, MMP-9 (Homo sapiens, UniProt P14780); experiment: MMP-9 inhibition assay (fluorogenic peptide substrate); conditions: Figure 5d; fragment combination joined by linker; n.d: not detected; read-out: MMP9 IC50
T3 construct: purchased Sino Biological 10327-HNAH
How it was run: as §1

[1] = Concentration 0.1024 nM, fraction of uninhibited activity, read-out: mean (Figure 3c, dose-response, relative trypsin activity)
[2] = Concentration 0.512 nM, fraction of uninhibited activity, read-out: mean (Figure 3c, dose-response, relative trypsin activity)
[3] = Concentration 2.56 nM, fraction of uninhibited activity, read-out: mean (Figure 3c, dose-response, relative trypsin activity)
[4] = Concentration 64 nM, fraction of uninhibited activity, read-out: mean (Figure 3c, dose-response, relative trypsin activity)
[5] = Concentration 320 nM, fraction of uninhibited activity, read-out: mean (Figure 3c, dose-response, relative trypsin activity)
[6] = Concentration 1600 nM, fraction of uninhibited activity, read-out: mean (Figure 3c, dose-response, relative trypsin activity)
[7] = Concentration 8000 nM, fraction of uninhibited activity, read-out: mean (Figure 3c, dose-response, relative trypsin activity)
[8] = Concentration 40000 nM, fraction of uninhibited activity, read-out: mean (Figure 3c, dose-response, relative trypsin activity)
[9] = Concentration 200000 nM, fraction of uninhibited activity, read-out: mean (Figure 3c, dose-response, relative trypsin activity)
[10] = fraction of uninhibited activity, read-out: mean (Figure 3c, dose-response, relative trypsin activity)

T3 sequence (P14780 107-707 limits assumed): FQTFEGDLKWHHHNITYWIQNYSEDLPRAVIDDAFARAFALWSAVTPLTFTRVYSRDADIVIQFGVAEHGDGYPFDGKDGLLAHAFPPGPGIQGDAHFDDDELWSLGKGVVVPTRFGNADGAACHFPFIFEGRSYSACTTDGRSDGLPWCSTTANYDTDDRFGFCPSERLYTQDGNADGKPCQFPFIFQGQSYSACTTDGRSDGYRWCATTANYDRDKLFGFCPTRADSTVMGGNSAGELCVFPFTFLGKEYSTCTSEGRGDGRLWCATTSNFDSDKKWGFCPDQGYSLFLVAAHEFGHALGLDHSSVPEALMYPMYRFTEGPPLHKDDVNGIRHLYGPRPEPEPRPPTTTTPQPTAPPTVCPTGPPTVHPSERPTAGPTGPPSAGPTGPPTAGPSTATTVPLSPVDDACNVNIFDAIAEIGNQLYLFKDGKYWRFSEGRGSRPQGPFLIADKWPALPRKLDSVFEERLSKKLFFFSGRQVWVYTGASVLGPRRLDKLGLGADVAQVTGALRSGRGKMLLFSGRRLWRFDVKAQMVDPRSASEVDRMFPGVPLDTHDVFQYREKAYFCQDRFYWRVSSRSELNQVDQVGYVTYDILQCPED

| SMILES | remaining activity at 0.0001024 µM (bovine trypsin; [1]) [%] | remaining activity at 0.000512 µM (bovine trypsin; [2]) [%] | remaining activity at 0.00256 µM (bovine trypsin; [3]) [%] | remaining activity at 0.064 µM (bovine trypsin; [4]) [%] | remaining activity at 0.32 µM (bovine trypsin; [5]) [%] | remaining activity at 1.6 µM (bovine trypsin; [6]) [%] | remaining activity at 8 µM (bovine trypsin; [7]) [%] | remaining activity at 40 µM (bovine trypsin; [8]) [%] | remaining activity at 200 µM (bovine trypsin; [9]) [%] | IC50 (MMP-2) [µM] | IC50 (MMP-9) [µM] | other results |
| --- | --- | --- | --- | --- | --- | --- | --- | --- | --- | --- | --- | --- |
| N=C(N)c1ccc(CN)cc1 [4-Aminomethyl benzamidine, 4-aminomethyl benzamidine, reference compound] | 108 | 96.5 | 102 | 110 | 101 | 106 | 103 | 82.5 | 44.6 |  |  | remaining activity at 1000 µM (bovine trypsin; [10]): 12.9%; IC50 (bovine trypsin): 147 µM |
| Cc1cc(=O)[nH]c(-n2nc(C)c(CCC(=O)NCCOCCOCCNC(=O)CCC(=O)NCc3c[nH]nn3)c2C)n1 [693_787 10] |  |  |  |  |  |  |  |  |  | 171 | 230 |  |
| Cc1cc(=O)[nH]c(-n2nc(C)c(CCC(=O)NCCNC(=O)CC(=O)/C=C/CCCCNC(=O)CCC(=O)NCc3c[nH]nn3)c2C)n1 [693_787 12] |  |  |  |  |  |  |  |  |  | 68.4 | 45.6 |  |
| Cc1cc(=O)[nH]c(-n2nc(C)c(CCC(=O)NCCSCC(=O)NCc3c[nH]nn3)c2C)n1 [693_787 24] |  |  |  |  |  |  |  |  |  | 149 | 270 |  |
| Cc1cc(=O)[nH]c(-n2nc(C)c(CCC(=O)NCCNC(=O)CC(=O)/C=C/CCCCNC(=O)c3cnc4c(c3)nc(O)n4C)c2C)n1 [693_826 12] |  |  |  |  |  |  |  |  |  | 210 | 58.9 |  |
| Cc1cc(=O)[nH]c(-n2nc(C)c(CCC(=O)NCCSCC(=O)NCCNC(=O)c3cnc4c(c3)nc(O)n4C)c2C)n1 [693_826 24] |  |  |  |  |  |  |  |  |  | 417 | 358 |  |
| Cc1cc(=O)[nH]c(-n2nc(C)c(CCC(=O)NCCNC(=O)c3cncc(O)c3)c2C)n1 [693_828 1] |  |  |  |  |  |  |  |  |  | 110 | 232 |  |
| Cc1cc(=O)[nH]c(-n2nc(C)c(CCC(=O)NCCCCCCCCNC(=O)c3cncc(O)c3)c2C)n1 [693_828 4] |  |  |  |  |  |  |  |  |  | 212 | 261 |  |
| Cc1cc(=O)[nH]c(-n2nc(C)c(CCC(=O)NCCOCCOCCNC(=O)c3cncc(O)c3)c2C)n1 [693_828 10] |  |  |  |  |  |  |  |  |  | 186 | 201 |  |
| Cc1cc(=O)[nH]c(-n2nc(C)c(CCC(=O)NCCNC(=O)CC(=O)/C=C/CCCCNC(=O)c3cncc(O)c3)c2C)n1 [693_828 12] |  |  |  |  |  |  |  |  |  | 10 | 14.8 |  |
| Cc1cc(=O)[nH]c(-n2nc(C)c(CCC(=O)NCCNC(=O)CSCCNC(=O)c3cncc(O)c3)c2C)n1 [693_828 24] |  |  |  |  |  |  |  |  |  | 59.9 | 80.5 |  |
| S=C=Nc1ccccc1I [Compound B, 2-iodophenyl isothiocyanate, reference compound] | 103 | 102 | 94.8 | 107 | 107 | 100 | 108 | 105 | 114 |  |  | remaining activity at 1000 µM (bovine trypsin; [10]): 90.1%; inhibitory effect (bovine trypsin; in words): did not display any detectable inhibitory effect |
| N=C(N)c1ccc(CNC(=O)CCCC(=O)NCCNC(=S)Nc2cccc(I)c2)cc1 [Compound T-1] |  |  |  |  |  |  |  |  |  |  |  | mean (Figure 3c, dose-response, relative trypsin activity) (bovine trypsin; Concentration 0.1024 nM, fraction of uninhibited activity): 0.9598; mean (Figure 3c, dose-response, relative trypsin activity) (bovine trypsin; Concentration 0.512 nM, fraction of uninhibited activity): 1.038; mean (Figure 3c, dose-response, relative trypsin activity) (bovine trypsin; Concentration 2.56 nM, fraction of uninhibited activity): 1.032; mean (Figure 3c, dose-response, relative trypsin activity) (bovine trypsin; Concentration 64 nM, fraction of uninhibited activity): 1.057; mean (Figure 3c, dose-response, relative trypsin activity) (bovine trypsin; Concentration 320 nM, fraction of uninhibited activity): 1.07; mean (Figure 3c, dose-response, relative trypsin activity) (bovine trypsin; Concentration 1600 nM, fraction of uninhibited activity): 0.9365; mean (Figure 3c, dose-response, relative trypsin activity) (bovine trypsin; Concentration 8000 nM, fraction of uninhibited activity): 0.7184; mean (Figure 3c, dose-response, relative trypsin activity) (bovine trypsin; Concentration 40000 nM, fraction of uninhibited activity): 0.2303; mean (Figure 3c, dose-response, relative trypsin activity) (bovine trypsin; Concentration 200000 nM, fraction of uninhibited activity): 0.05821; mean (Figure 3c, dose-response, relative trypsin activity) (bovine trypsin; Concentration 830000 nM, fraction of uninhibited activity): 0.00834; mean (Figure 3c, dose-response, relative trypsin activity) (bovine trypsin; Concentration […], fraction of uninhibited activity): 1.021 |

Continued, in another order:

| remaining activity at 0.0001024 µM (bovine trypsin; [1]) [%] | remaining activity at 0.000512 µM (bovine trypsin; [2]) [%] | remaining activity at 0.00256 µM (bovine trypsin; [3]) [%] | remaining activity at 0.064 µM (bovine trypsin; [4]) [%] | remaining activity at 0.32 µM (bovine trypsin; [5]) [%] | remaining activity at 1.6 µM (bovine trypsin; [6]) [%] | remaining activity at 8 µM (bovine trypsin; [7]) [%] | remaining activity at 40 µM (bovine trypsin; [8]) [%] | remaining activity at 200 µM (bovine trypsin; [9]) [%] | IC50 (MMP-2) [µM] | IC50 (MMP-9) [µM] | SMILES | other results |
| --- | --- | --- | --- | --- | --- | --- | --- | --- | --- | --- | --- | --- |
| 101 | 110 | 107 | 110 | 102 | 97.5 | 74 | 23.7 | 5.61 |  |  | N=C(N)c1ccc(CNC(=S)Nc2cccc(I)c2)cc1 [Compound T-0] | remaining activity at 1000 µM (bovine trypsin; [10]): 1.19%; improvement (of inhibitory effect) (bovine trypsin): approximately 9 fold; IC50 (bovine trypsin): 16.6 ± 3.1 µM |
| 105 | 104 | 106 | 109 | 97.3 | 81.2 | 37.4 | 7.09 | 1.08 |  |  | N=C(N)c1ccc(CNCc2ccc(C(=O)NCCNC(=S)Nc3cccc(I)c3)cc2)cc1 [Compound T-2] | remaining activity at 365 µM (bovine trypsin; Concentration 365000 nM, fraction of uninhibited activity, read-out: mean (Figure 3c, dose-response, relative trypsin activity)): 0.681%; improvement (of inhibitory effect) (bovine trypsin): 70 fold; IC50 (bovine trypsin): 5.2 ± 2.2 µM |
| 93.7 | 99.6 | 98.7 | 108 | 90.1 | 56.5 | 18.3 | 3.2 | 0.69 |  |  | N=C(N)c1ccc(CNC(=O)C2CCC(C(=O)NCCNC(=S)Nc3cccc(I)c3)CC2)cc1 (centres unmarked) [Compound T-3] | remaining activity at 650 µM (bovine trypsin; Concentration 650000 nM, fraction of uninhibited activity, read-out: mean (Figure 3c, dose-response, relative trypsin activity)): 0%; improvement (of inhibitory effect) (bovine trypsin): 30 fold; IC50 (bovine trypsin): 2.1 ± 0.4 µM |
